The supplement of paper PMC11061612

What was measured:
Assay in all cases: combination Emax (second highest fraction inhibited in the dose matrix, 72 h); higher = more inhibition; extreme values may be limits of the assay
ES8 (Ewing's Sarcoma) = tested on: ES8 (Ewing's Sarcoma)
In short: (§1)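 Cell lines in DMEM/F12 or RPMI with 10% FBS were plated in 1536-well plates, held 24 hours at 37°C, 5% CO2, then given two-drug dose matrices for 72 hours (DMSO typically 0.2%). Viability was read by CellTiter-Glo 2.0 luminescence and scaled as inhibition from 0 (vehicle wells) to 1 (blank wells). Combination Emax is the second-highest inhibition in the matrix; Bliss excess is observed combination effect minus expected EA + EB − EA·EB, EA and EB being single-agent effects.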

[1] = tested on: SU-DHL-8 (B-Cell Non-Hodgkin's Lymphoma)
In short: as §1

CHP-212 (Neuroblastoma) = tested on: CHP-212 (Neuroblastoma)
In short: as §1

[2] = tested on: KM12 (Colorectal Carcinoma)
In short: as §1

[3] = tested on: DiFi (Colorectal Carcinoma)
In short: as §1

[4] = tested on: GR-ST (B-Lymphoblastic Leukemia)
In short: as §1

[5] = tested on: TE-6 (Esophageal Squamous Cell Carcinoma)
In short: as §1

WIL2-NS (Non-Cancerous) = tested on: WIL2-NS (Non-Cancerous)
In short: as §1

[6] = tested on: L-540 (Hodgkin's Lymphoma)
In short: as §1

[7] = tested on: HDQ-P1 (Breast Carcinoma)
In short: as §1

[8] = tested on: TOV-112D (Ovarian Carcinoma)
In short: as §1

[9] = tested on: HL-60 (Acute Myeloid Leukemia)
In short: as §1

[10] = tested on: KARPAS-45 (T-Lymphoblastic Leukemia)
In short: as §1

[11] = tested on: K-562 (Chronic Myelogenous Leukemia)
In short: as §1

[12] = tested on: SW1417 (Colorectal Carcinoma)
In short: as §1

ES1 (Ewing's Sarcoma) = tested on: ES1 (Ewing's Sarcoma)
In short: as §1

[13] = tested on: MFM-223 (Breast Carcinoma)
In short: as §1

[14] = tested on: SR (Other Blood Carcinomas)
In short: as §1

[15] = tested on: MOLT-16 (T-Lymphoblastic Leukemia)
In short: as §1

[16] = tested on: P12-ICHIKAWA (T-Lymphoblastic Leukemia)
In short: as §1

Row | Compound | combination Emax (ES8 (Ewing's Sarcoma)) | combination Emax [1] | combination Emax (CHP-212 (Neuroblastoma)) | combination Emax [2] | combination Emax [3] | combination Emax [4] | combination Emax [5] | combination Emax (WIL2-NS (Non-Cancerous)) | combination Emax [6] | combination Emax [7] | combination Emax [8] | combination Emax [9] | combination Emax [10] | combination Emax [11] | combination Emax [12] | combination Emax (ES1 (Ewing's Sarcoma)) | combination Emax [13] | combination Emax [14] | combination Emax [15] | combination Emax [16]
1 | CN(CCO)CC[C@H](CSc1ccccc1)Nc1ccc(S(=O)(=O)NC(=O)c2ccc(N3CCC([C@@H](O)c4ccccc4-c4ccc(Cl)cc4)CC3)cc2)cc1S(=O)(=O)C(F)(F)F [AZD4320] + CN(C)CCCOc1ccc(-c2ccc3ncc4c(c3c2)n(C2CCOCC2)c(=O)n4C)cn1 [AZD0156] (first compound max 1 µM, 7x7, partner max 1 µM) | 0.64 | 0.957 | 0.278 | 0.186 | 0.608 | 0.175 | 0.391 | 0.22 | 0.224 | 0.465 | 0.222 | 0.898 | 0.988 | 0.345 | 0.742 | 0.226 | 0.199 | 0.252 | 0.989 | 1
2 | Cc1c2c(nn1C)CSCc1cc(n(C)n1)CSc1cc(c3ccccc3c1)OCCCc1c(C(=O)O)n(C)c3c-2c(Cl)ccc13 [AZD5991] + CC1(C)CCC(CN2CCN(c3ccc(C(=O)NS(=O)(=O)c4ccc(NCC5CCOCC5)c([N+](=O)[O-])c4)c(Oc4cnc5[nH]ccc5c4)c3)CC2)=C(c2ccc(Cl)cc2)C1 [Venetoclax] (first compound max 1 µM, 7x7, partner max 1 µM) | 0.864 | 0.861 | 0.835 | 0.173 | 0.624 | 0.124 | 0.677 | 0.23 | 1 | 0.216 | 0.777 | 1 | 1 | 0.226 | 0.191 | 0.93 | 0.276 | 0.964 | 1 | 1
3 | CS(=O)(=O)CCNCc1ccc(-c2ccc3ncnc(Nc4ccc(OCc5cccc(F)c5)c(Cl)c4)c3c2)o1 [Lapatinib] + C[C@@H](Oc1cc(-c2cnn(C3CCNCC3)c2)cnc1N)c1c(Cl)ccc(F)c1Cl [Crizotinib] (first compound max 10 µM, 7x7, partner max 10 µM) | 1 | 0.694 | 0.988 | 0.93 | 1 | 0.988 | 0.835 | 0.607 | 0.911 | 0.936 | 0.791 | 0.941 | 1 | 0.962 | 0.669 | 0.965 | 0.662 | 1 | 0.992 | 0.975
4 | CC1(C)CCC(CN2CCN(c3ccc(C(=O)NS(=O)(=O)c4ccc(NCC5CCOCC5)c([N+](=O)[O-])c4)c(Oc4cnc5[nH]ccc5c4)c3)CC2)=C(c2ccc(Cl)cc2)C1 [Venetoclax] + Cn1cnc2c(F)c(Nc3ccc(Br)cc3Cl)c(C(=O)NOCCO)cc21 [Selumetinib] (first compound max 1 µM, 7x7, partner max 3 µM) | 0.195 | 0.31 | 0.878 | 0.555 | 0.351 | 0.481 | 0.319 | 0.87 | 0.493 | 0.182 | 0.156 | 0.937 | 0.317 | 0.414 | 0.489 | 0.338 | 0.24 | 0.791 | 0.691 | 0.23
5 | CN(CCO)CC[C@H](CSc1ccccc1)Nc1ccc(S(=O)(=O)NC(=O)c2ccc(N3CCC([C@@H](O)c4ccccc4-c4ccc(Cl)cc4)CC3)cc2)cc1S(=O)(=O)C(F)(F)F [AZD4320] + Cc1cc2ncnn2cc1Nc1ncc2c(n1)n(C1CCOCC1)c(=O)n2C [AZD7648] (first compound max 1 µM, 7x7, partner max 10 µM) | 0.57 | 0.942 | 0.379 | 0.226 | 0.784 | 0.371 | 0.524 | 0.335 | 0.502 | 0.522 | 0.318 | 0.923 | 0.991 | 0.17 | 0.798 | 0.355 | 0.223 | 0.393 | 1 | 1
6 | NC1(C(=O)N[C@@H](CCO)c2ccc(Cl)cc2)CCN(c2ncnc3[nH]ccc23)CC1 [Capivasertib] + Cn1cnc2c(F)c(Nc3ccc(Br)cc3Cl)c(C(=O)NOCCO)cc21 [Selumetinib] (first compound max 10 µM, 7x7, partner max 10 µM) | 0.533 | 0.0919 | 0.946 | 0.868 | 0.905 | 0.678 | 0.736 | 0.771 | 0.188 | 0.596 | 0.313 | 0.874 | 0.627 | 0.425 | 0.586 | 0.52 | 0.894 | 0.582 | 0.805 | 0.748
7 | NC1(C(=O)N[C@@H](CCO)c2ccc(Cl)cc2)CCN(c2ncnc3[nH]ccc23)CC1 [Capivasertib] + CC(=O)c1c(C)c2cnc(Nc3ccc(N4CCNCC4)cn3)nc2n(C2CCCC2)c1=O [Palbociclib] (first compound max 10 µM, 7x7, partner max 10 µM) | 0.64 | 0.571 | 0.556 | 0.853 | 0.619 | 0.75 | 0.723 | 0.849 | 0.214 | 0.302 | 0.542 | 0.799 | 0.982 | 0.257 | 0.269 | 0.765 | 0.882 | 0.844 | 0.924 | 0.739
8 | Cc1c2c(nn1C)CSCc1cc(n(C)n1)CSc1cc(c3ccccc3c1)OCCCc1c(C(=O)O)n(C)c3c-2c(Cl)ccc13 [AZD5991] + C[C@@H]1COCCN1C2=NC(=NC(=C2)C3(CC3)[S@](=N)(=O)C)C4=C5C=CNC5=NC=C4 [AZD6738] (first compound max 1 µM, 7x7, partner max 10 µM) | 0.891 | 1 | 0.939 | 0.746 | 0.923 | 0.716 | 0.817 | 0.969 | 1 | 0.387 | 0.963 | 1 | 1 | 0.864 | 0.453 | 1 | 0.824 | 1 | 1 | 1
9 | Cc1c2c(nn1C)CSCc1cc(n(C)n1)CSc1cc(c3ccccc3c1)OCCCc1c(C(=O)O)n(C)c3c-2c(Cl)ccc13 [AZD5991] + CN(C)CCCOc1ccc(-c2ccc3ncc4c(c3c2)n(C2CCOCC2)c(=O)n4C)cn1 [AZD0156] (first compound max 1 µM, 7x7, partner max 1 µM) | 0.385 | 0.692 | 0.837 | 0.27 | 0.252 | 0.502 | 0.792 | 0.388 | 1 | 0.195 | 0.551 | 1 | 0.913 | 0.172 | 0.263 | 0.753 | 0.238 | 0.96 | 1 | 0.994
10 | CN(C)CCCOc1ccc(-c2ccc3ncc4c(c3c2)n(C2CCOCC2)c(=O)n4C)cn1 [AZD0156] + O=C(c1cc(Cc2n[nH]c(=O)c3ccccc23)ccc1F)N1CCN(C(=O)C2CC2)CC1 [Olaparib] (first compound max 3 µM, partner max 3 µM) | 0.877 | 0.266 | 0.519 | 0.36 | 0.223 | 0.6 | 0.417 | 0.6 | 0.406 | 0.371 | 0.552 | 0.489 | 0.238 | 0.171 | 0.135 | 0.834 | 0.179 | 0.675 | 0.914 | 0.611
11 | CC(=O)Nc1cccc(-n2c(=O)n(C3CC3)c(=O)c3c(Nc4ccc(I)cc4F)n(C)c(=O)c(C)c32)c1 [Trametinib] + Cc1nc(-c2cn3c(n2)-c2ccc(-c4cnn(C(C)(C)C(N)=O)c4)cc2OCC3)n(C(C)C)n1 [Taselisib] (first compound max 1 µM, 7x7, partner max 10 µM) | 0.844 | 0 | 1 | 0.84 | 1 | 0.633 | 0.908 | 0.723 | 0.36 | 0.915 | 0.641 | 0.958 | 0.755 | 0.495 | 0.775 | 0.651 | 0.865 | 0.719 | 0.776 | 0.658
12 | COc1nnc2ccc(N3CCC(c4ccc(OCCN5CCN(C)C(=O)[C@H]5C)cc4)CC3)nn12 [AZD5153] + C[C@@H]1COCCN1C2=NC(=NC(=C2)C3(CC3)[S@](=N)(=O)C)C4=C5C=CNC5=NC=C4 [AZD6738] (first compound max 1 µM, 7x7, partner max 10 µM) | 0.907 | 0.996 | 0.967 | 0.88 | 0.844 | 0.846 | 0.79 | 0.935 | 0.913 | 0.571 | 0.849 | 0.985 | 1 | 0.821 | 0.662 | 0.918 | 0.734 | 0.937 | 1 | 1
